# Source: patent US5100916A, “Carbamic acid ester for treatment of addiction to alcohol” (Bio-Tox Diagnostics Kommanditbolag, priority 1988, dated 1992)
# How the values were obtained:
# [1] = target: T1, aldehyde dehydrogenase (low Km) (Rattus norvegicus, UniProt P11884); assay: In vitro inhibition of aldehyde dehydrogenase of low Km, rat liver homogenate; format: biochemical; conditions: 1 h incubation, 2760 μmol/liter, water ref. = 100, double determinations, 4 rats, read-out: Residual activity of aldehyde dehydrogenase (Low Km in % of ref. value)
# T1 construct: The aldehyde dehydrogenase activity in the homogenate after incubation for 1 h; from tissue; host or cells: rat liver homogenate
# T1 sequence (P11884 20-519): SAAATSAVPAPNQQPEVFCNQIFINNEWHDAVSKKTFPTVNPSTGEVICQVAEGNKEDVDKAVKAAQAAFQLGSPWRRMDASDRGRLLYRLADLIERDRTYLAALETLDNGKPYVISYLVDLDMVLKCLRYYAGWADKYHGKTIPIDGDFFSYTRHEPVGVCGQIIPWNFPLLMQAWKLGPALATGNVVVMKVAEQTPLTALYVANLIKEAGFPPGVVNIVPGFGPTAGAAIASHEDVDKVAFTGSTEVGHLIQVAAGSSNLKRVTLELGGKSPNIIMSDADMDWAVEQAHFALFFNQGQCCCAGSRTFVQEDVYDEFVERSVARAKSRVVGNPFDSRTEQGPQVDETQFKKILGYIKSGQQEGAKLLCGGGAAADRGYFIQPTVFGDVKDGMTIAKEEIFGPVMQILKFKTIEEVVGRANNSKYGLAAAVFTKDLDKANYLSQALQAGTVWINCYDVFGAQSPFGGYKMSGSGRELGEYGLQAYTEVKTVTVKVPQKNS
# Method: (§1) METHOD FOR INHIBITING ALDEHYDE DEHYDROGENASE
# (§2) Fractionation of rat liver homogenates was performed according to Tottmar et al, Biochem. J. 1973:135:577. The aldehyde dehydrogenase activity in the homogenate after incubation for 1 h with different thiocarbamic acid esters (see Table 1) was measured spectrophotometrically in 50 μl aliquots by following the reduction of NAD to NADH at 340 nm at 37° C. in the presence of the substrate acetaldehyde […], as described by Tottmar and Marcher (Acta Pharmacol. et Toxicol. 1976:38:366).
# (§3) In vitro inhibition of aldehyde dehydrogenase of low Km
# (§4) The values are X±SD of double determinations, on the one hand in homogenates from 4 rats and, on the other hand, in bovine liver (last two values in Table 1).
# (§5) The concentration=2760 μmol/liter for all compounds, except the last two compounds for which the concentration was 3.0 mmol/liter.
# [2] = tested on: aldehyde dehydrogenase (low Km); assay: In vitro inhibition of aldehyde dehydrogenase, measured on bovine liver; format: biochemical; conditions: 3.0 mmol/liter, water ref. = 100, double determinations, 60 min
# Method: as §1, §2, §3
# *Measured on bovine liver
# as §4, §5
# [3] = tested on: rats; assay: "Antabuse-alcohol" reaction on rats by tonometry (diastolic blood pressure after ethanol); format: in vivo, rat; conditions: N = 3, salt water 92.5 ± 5.2
# Method: Method of assessing the "Antabuse®-alcohol" reaction on rats by tonometry
# These measurements were performed on a selected compound. The substance employed is diethyl thiocarbamic acid-S-methyl ester (referred to as DTSM hereinafter).
# Male rats having a body weight of 300-400 g were anaesthetised with urethane 1.25 g/kg i.p. On a group of 4 rats, a catheter filled with heparin-salt water was inserted by operative surgery in one carotid artery, and the blood pressure was recorded before and after intraperitoneal injection of ethanol (1 g/kg, 10 ml/kg of 10% v/v ethanol in water). Two other groups of 3 rats each were treated intraperitoneally with DTSM for 1 and 2 hours, respectively, whereupon ethanol (1 g/kg, 10 ml/kg of 10% v/v ethanol in water) was injected intraperitoneally. The blood pressure was measured before the injection of ethanol and for 30 min. after injection, after which time the blood pressure has usually stabilized itself (Hellstrom and Tottmar: Pharmacology Biochemistry and Behaviour 1982:17:1103).
# [4] = cited from earlier work
# [5] = tested on: patients; conditions: person takes disulfiram and then drinks alcohol; cited from earlier work
# [6] = tested on: acetaldehyde dehydrogenase; conditions: cited from earlier work
# [7] = cited from earlier work; remark: listed apart in the source
remaining activity at 2760 µM [1],Structure (SMILES),further results
16%,CSC(=O)N1CCCCC1,
0%,CSC(=O)NCCc1ccccc1,
10%,CSC(=O)NCCc1ccc(O)cc1,
8%,CSC(=O)Nc1ccccc1,
,COC(=O)N1CCCCC1 [1-piperidine carbamic acid-methyl ester],Residual activity of aldehyde dehydrogenase (Low Km in % of ref. value) [2]: 76 % of ref. value
9%,CSC(=O)N1CCCC1,
,CCN(CC)C(=O)OC [Diethyl carbamic acid-methyl ester],Residual activity of aldehyde dehydrogenase (Low Km in % of ref. value) [2]: 87 % of ref. value
8%,"CCSC(=O)N(CC)CC [X = CH2 CH3, R = CH2 CH3, R1 = CH2 CH3, diethyl thiocarbamic acid-S-ethyl ester]",
,CCN(CC)C(=S)SSC(=S)N(CC)CC [disulfiram],"t 1/2 of metabolism in blood [4]: 4 min; disulfiram/alcohol reaction [5]: nausea, a ruddy complexion, palpitation of the heart, low blood pressure, vomiting, and a pulsating headache; blocking of liver enzyme acetaldehyde dehydrogenase [6]: irreversible blocking; solubility in water [7]: very sparingly soluble in water"
11%,CCCN(CCC)C(=O)SC,

Structure (SMILES),remaining activity at 2760 µM [1],further results
"CSC(=O)N(C)C [X = CH3, R = CH3, R1 = CH3, dimethyl thiocarbamic acid-S-methyl ester]",16%,
"CCN(CC)C(=O)SC [DTSM, diethyl thiocarbamic acid-S-methyl ester]",73%,"Diastolic blood pressure of rats 30 min. after ethanol injection, % of own ref. value (X ± SD) ([3]; DTSM 30 mg/kg i.p. 1 hour before ethanol 1 g/kg i.p., p <0.01): 77.1 ± 3.6 % of own ref. value; Diastolic blood pressure of rats 30 min. after ethanol injection, % of own ref. value (X ± SD) ([3]; DTSM 30 mg/kg i.p. 2 hours before ethanol 1 g/kg i.p., p <0.05): 57.6 ± 28 % of own ref. value"
